Measurements as given in patent EP0672658B1, “Antithrombotic agents” (priority 1994, dated 1995).
Where a name gives a salt, the structure may show the parent alone.

Test system: human or animal plasma
Experiment: Anticoagulation determination in plasma: thrombin time (TT)
Format: biochemical
Details: concentration doubling thrombin time
How it was run: (§1)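 Compounds spiked over a concentration range into citrated human, dog or rat plasma. PT used Thromboplastin-C; APTT used Actin reagent 120 s then 0.02 M CaCl2; TT used bovine thrombin 10 NIH units/mL. Concentration doubling clotting time estimated by linear extrapolation.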
Wherever % oral/i.v. activity (Rat) is given: key: NC^1 indicates screening not completed; low or very low activity obsrved at 20 mg/kg p.o; NC^2 indicates screening not completed; low or very low activity observed at 60 mg/kg p.o; NC^3 indicates screening not completed; low or very low activity observed at 50 mg/kg p.o.

In order of rising “Human Plasma Anticoagulation 2x Clotting time (ng/mL) TT” value:
1. N=C(N)c1ccc(CNC(=O)[C@@H]2CCCN2C(=O)[C@@H](CC2CCCCC2)NCC(=O)O)c(F)c1 [Example 71, HO2CCH2-D-Cha-Pro-4-NHCH2-3-F-benzamidine·HCl]  1 ng/mL
2. N=C(N)c1cc(F)c(CNC(=O)[C@@H]2CCCN2C(=O)[C@@H](CC2CCCCC2)NCC(=O)O)c(F)c1 [Example 72, HO2CCH2-D-Cha-Pro-4-NHCH2-3,5-F2-benzamidine·HCl]  1 ng/mL
3. CCS(=O)(=O)N[C@H](Cc1ccccc1)C(=O)N1[C@H](C(=O)NCc2ccc(C(=N)N)cc2)C[C@@H]2CCCC[C@@H]21 [Example 45, EtSO2-Phe-cis-Ohi-p-NHCH2C6H4C(NH)NH2·HCl]  8 ng/mL

Molecular target: factor Xa (Homo sapiens, UniProt P00742)
Experiment: biochemical
Details: read-out: Kass Xa (converted)
How it was run: (§2)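 Bovine trypsin and human factor Xa amidase activity measured chromogenically, following the human thrombin procedure. Substrates: N-Benzoyl-Ile-Glu-Gly-Arg-p-nitroanilide for factor Xa and N-Benzoyl-Phe-Val-Arg-p-nitroanilide for trypsin. Used for selectivity profiling.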

factor Xa, sequence (P00742 235-488 limits assumed): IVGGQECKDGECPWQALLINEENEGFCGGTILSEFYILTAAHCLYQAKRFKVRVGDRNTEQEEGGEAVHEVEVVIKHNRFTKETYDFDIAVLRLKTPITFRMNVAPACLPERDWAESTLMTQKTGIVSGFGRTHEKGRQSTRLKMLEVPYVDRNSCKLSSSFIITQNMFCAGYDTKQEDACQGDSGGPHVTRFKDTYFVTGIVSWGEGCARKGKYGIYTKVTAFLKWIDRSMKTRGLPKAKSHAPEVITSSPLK
factor Xa, sequence (P00742 41-179 partner limits assumed): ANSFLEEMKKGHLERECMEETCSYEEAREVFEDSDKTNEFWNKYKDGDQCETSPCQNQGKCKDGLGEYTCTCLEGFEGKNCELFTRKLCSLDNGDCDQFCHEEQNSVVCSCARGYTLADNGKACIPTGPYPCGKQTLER

With CCS(=O)(=O)N[C@H](Cc1ccccc1)C(=O)N1[C@H](C(=O)NCc2ccc(C(=N)N)cc2)C[C@@H]2CCCC[C@@H]21 [Example 45, EtSO2-Phe-cis-Ohi-p-NHCH2C6H4C(NH)NH2·HCl] the Kd was 667 nM.

Molecular target: t-PA (Homo sapiens, UniProt P00750)
Experiment: biochemical
Details: read-out: Kass t-PA (converted)
How it was run: (§3)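 Amidase activity of human plasmin and t-PA (nt-PA single-chain; mt-PA6) was measured by a chromogenic method adapted from a thrombin assay. Substrates were H-D-Val-Leu-Lys-p-nitroanilide for plasmin and H-D-Ile-Pro-Arg-p-nitroanilide for t-PA.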

t-PA, sequence (P00750 36-562): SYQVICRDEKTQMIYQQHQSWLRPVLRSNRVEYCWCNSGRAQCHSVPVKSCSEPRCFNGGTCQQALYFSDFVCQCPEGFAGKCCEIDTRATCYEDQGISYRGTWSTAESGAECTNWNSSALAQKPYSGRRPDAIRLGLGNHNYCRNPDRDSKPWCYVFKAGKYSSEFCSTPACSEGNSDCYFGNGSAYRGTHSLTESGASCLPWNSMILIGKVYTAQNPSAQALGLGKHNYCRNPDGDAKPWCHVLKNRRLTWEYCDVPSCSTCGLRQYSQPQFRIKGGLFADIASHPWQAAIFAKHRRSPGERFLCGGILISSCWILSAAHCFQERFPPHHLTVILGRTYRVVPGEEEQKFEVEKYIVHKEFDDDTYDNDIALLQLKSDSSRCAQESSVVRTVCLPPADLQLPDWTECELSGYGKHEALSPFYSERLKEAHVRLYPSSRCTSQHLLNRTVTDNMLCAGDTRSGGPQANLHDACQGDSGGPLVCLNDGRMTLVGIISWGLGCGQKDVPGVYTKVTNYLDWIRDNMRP

In the case of CCS(=O)(=O)N[C@H](Cc1ccccc1)C(=O)N1[C@H](C(=O)NCc2ccc(C(=N)N)cc2)C[C@@H]2CCCC[C@@H]21 [Example 45, EtSO2-Phe-cis-Ohi-p-NHCH2C6H4C(NH)NH2·HCl], the Kd is reported as 1300 nM.

Molecular target: T1, Plasmin (Homo sapiens, UniProt P00747)
T1 construct: Human plasmin is purchased; purchased Boehringer Mannheim, Indianapolis, Indiana
Experiment: biochemical
Details: read-out: Kass Plasmin (converted)
How it was run: as §3

T1 sequence (P00747 581-810 limits assumed): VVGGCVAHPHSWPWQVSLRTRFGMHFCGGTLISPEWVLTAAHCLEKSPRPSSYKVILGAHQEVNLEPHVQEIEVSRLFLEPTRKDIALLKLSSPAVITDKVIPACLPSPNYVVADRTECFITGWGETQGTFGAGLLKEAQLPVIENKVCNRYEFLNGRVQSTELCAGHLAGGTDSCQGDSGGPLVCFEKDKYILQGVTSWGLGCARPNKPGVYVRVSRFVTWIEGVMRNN
T1 sequence (P00747 97-580 partner limits assumed): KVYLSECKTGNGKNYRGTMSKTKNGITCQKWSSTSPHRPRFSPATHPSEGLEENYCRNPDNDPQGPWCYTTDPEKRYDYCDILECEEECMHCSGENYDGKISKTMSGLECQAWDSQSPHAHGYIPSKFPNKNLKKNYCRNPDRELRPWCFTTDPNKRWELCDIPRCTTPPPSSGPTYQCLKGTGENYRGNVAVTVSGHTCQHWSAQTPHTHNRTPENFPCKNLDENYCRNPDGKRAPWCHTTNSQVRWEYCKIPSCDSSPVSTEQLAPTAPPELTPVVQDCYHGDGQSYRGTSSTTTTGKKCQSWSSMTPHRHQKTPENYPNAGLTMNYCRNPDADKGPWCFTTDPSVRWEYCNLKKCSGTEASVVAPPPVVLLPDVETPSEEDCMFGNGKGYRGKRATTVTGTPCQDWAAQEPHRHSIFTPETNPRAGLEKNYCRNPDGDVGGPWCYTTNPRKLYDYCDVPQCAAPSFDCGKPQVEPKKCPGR

With CCS(=O)(=O)N[C@H](Cc1ccccc1)C(=O)N1[C@H](C(=O)NCc2ccc(C(=N)N)cc2)C[C@@H]2CCCC[C@@H]21 [Example 45, EtSO2-Phe-cis-Ohi-p-NHCH2C6H4C(NH)NH2·HCl] the Kd was 909 nM.

Molecular target: Human Thrombin (Homo sapiens, UniProt P00734)
Experiment: biochemical
Details: read-out: Kass Human Thrombin (converted)

In order of falling Kd:
1. CCS(=O)(=O)N[C@H](Cc1ccccc1)C(=O)N1[C@H](C(=O)NCc2ccc(C(=N)N)cc2)C[C@@H]2CCCC[C@@H]21 [Example 45, EtSO2-Phe-cis-Ohi-p-NHCH2C6H4C(NH)NH2·HCl]  1.64 nM
2. N=C(N)c1ccc(CNC(=O)[C@@H]2CCCN2C(=O)[C@@H](CC2CCCCC2)NCC(=O)O)c(F)c1 [Example 71, HO2CCH2-D-Cha-Pro-4-NHCH2-3-F-benzamidine·HCl]  0.714 nM
3. N=C(N)c1cc(F)c(CNC(=O)[C@@H]2CCCN2C(=O)[C@@H](CC2CCCCC2)NCC(=O)O)c(F)c1 [Example 72, HO2CCH2-D-Cha-Pro-4-NHCH2-3,5-F2-benzamidine·HCl]  0.435 nM

Test system: not listed separately
Experiment: in vivo
Design: species or system rats
Details: screening not completed, activity after p.o. dose given in the legend
Excerpt: Each sample population represented alternating sequential time points.

In the case of N=C(N)c1ccc(CNC(=O)[C@@H]2CCCN2C(=O)[C@@H](CC2CCCCC2)NCC(=O)O)c(F)c1 [Example 71, HO2CCH2-D-Cha-Pro-4-NHCH2-3-F-benzamidine·HCl], the “% oral/i.v. activity (Rat)” value is reported as “NC^1”.
In the case of N=C(N)c1cc(F)c(CNC(=O)[C@@H]2CCCN2C(=O)[C@@H](CC2CCCCC2)NCC(=O)O)c(F)c1 [Example 72, HO2CCH2-D-Cha-Pro-4-NHCH2-3,5-F2-benzamidine·HCl], the “% oral/i.v. activity (Rat)” value is reported as “NC^1”.
With CCS(=O)(=O)N[C@H](Cc1ccccc1)C(=O)N1[C@H](C(=O)NCc2ccc(C(=N)N)cc2)C[C@@H]2CCCC[C@@H]21 [Example 45, EtSO2-Phe-cis-Ohi-p-NHCH2C6H4C(NH)NH2·HCl] the “% oral/i.v. activity (Rat)” value was “NC^2”.

Test system: human or animal plasma
Experiment: Anticoagulation determination in plasma: activated partial thromboplastin time (APTT)
Format: biochemical
Details: concentration doubling activated partial thromboplastin time
How it was run: as §1

In order of rising “Human Plasma Anticoagulation 2x Clotting time (ng/mL) APTT” value:
1. N=C(N)c1ccc(CNC(=O)[C@@H]2CCCN2C(=O)[C@@H](CC2CCCCC2)NCC(=O)O)c(F)c1 [Example 71, HO2CCH2-D-Cha-Pro-4-NHCH2-3-F-benzamidine·HCl]  89 ng/mL
2. N=C(N)c1cc(F)c(CNC(=O)[C@@H]2CCCN2C(=O)[C@@H](CC2CCCCC2)NCC(=O)O)c(F)c1 [Example 72, HO2CCH2-D-Cha-Pro-4-NHCH2-3,5-F2-benzamidine·HCl]  160 ng/mL
3. CCS(=O)(=O)N[C@H](Cc1ccccc1)C(=O)N1[C@H](C(=O)NCc2ccc(C(=N)N)cc2)C[C@@H]2CCCC[C@@H]21 [Example 45, EtSO2-Phe-cis-Ohi-p-NHCH2C6H4C(NH)NH2·HCl]  200 ng/mL

Test system: human or animal plasma
Experiment: Anticoagulation determination in plasma: prothrombin time (PT)
Format: biochemical
Details: concentration doubling prothrombin time
How it was run: as §1

In order of falling “Human Plasma Anticoagulation 2x Clotting time (ng/mL) PT” value:
1. CCS(=O)(=O)N[C@H](Cc1ccccc1)C(=O)N1[C@H](C(=O)NCc2ccc(C(=N)N)cc2)C[C@@H]2CCCC[C@@H]21 [Example 45, EtSO2-Phe-cis-Ohi-p-NHCH2C6H4C(NH)NH2·HCl]  330 ng/mL
2. N=C(N)c1cc(F)c(CNC(=O)[C@@H]2CCCN2C(=O)[C@@H](CC2CCCCC2)NCC(=O)O)c(F)c1 [Example 72, HO2CCH2-D-Cha-Pro-4-NHCH2-3,5-F2-benzamidine·HCl]  160 ng/mL
3. N=C(N)c1ccc(CNC(=O)[C@@H]2CCCN2C(=O)[C@@H](CC2CCCCC2)NCC(=O)O)c(F)c1 [Example 71, HO2CCH2-D-Cha-Pro-4-NHCH2-3-F-benzamidine·HCl]  150 ng/mL

Molecular target: T2, Trypsin (Bos taurus, UniProt P00760)
T2 sequence (P00760 24-246): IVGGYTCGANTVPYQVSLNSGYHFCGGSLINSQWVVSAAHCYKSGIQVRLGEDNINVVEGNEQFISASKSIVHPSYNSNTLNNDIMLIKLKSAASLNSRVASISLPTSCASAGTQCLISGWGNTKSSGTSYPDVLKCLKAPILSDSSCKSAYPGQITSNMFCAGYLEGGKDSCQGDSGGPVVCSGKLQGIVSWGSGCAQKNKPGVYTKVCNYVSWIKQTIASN
Experiment: biochemical
Design: species or system Bovine
Details: read-out: Kass Trypsin (converted)
How it was run: as §2

In order of rising Kd:
1. N=C(N)c1cc(F)c(CNC(=O)[C@@H]2CCCN2C(=O)[C@@H](CC2CCCCC2)NCC(=O)O)c(F)c1 [Example 72, HO2CCH2-D-Cha-Pro-4-NHCH2-3,5-F2-benzamidine·HCl]  3.57 nM
2. N=C(N)c1ccc(CNC(=O)[C@@H]2CCCN2C(=O)[C@@H](CC2CCCCC2)NCC(=O)O)c(F)c1 [Example 71, HO2CCH2-D-Cha-Pro-4-NHCH2-3-F-benzamidine·HCl]  4.17 nM
3. CCS(=O)(=O)N[C@H](Cc1ccccc1)C(=O)N1[C@H](C(=O)NCc2ccc(C(=N)N)cc2)C[C@@H]2CCCC[C@@H]21 [Example 45, EtSO2-Phe-cis-Ohi-p-NHCH2C6H4C(NH)NH2·HCl]  9.09 nM
